According to patent US12649733B2, “3,6-diamino-pyridazin-3-yl derivatives, pharmaceutical compositions containing them and their uses as pro-apoptotic agents” (LES LABORATOIRES SERVIER, priority 2019, dated 2026):

Legend:
MOLT-4 = conditions: mature T-ALL cell line xenograft model MOLT-4; cited from earlier work
[1] = system: T-ALL (T-cell Acute Lymphoblastic Leukemia) and different types of solid tumors; conditions: pre-clinical models of T-ALL and different types of solid tumors; cited from earlier work
BCLXL [2] = target: T1, BCLXL (Homo sapiens, UniProt Q07817, V10N/V9A); assay: Fluorescence polarisation assay (PUMA-based probe displacement); format: binding; also: 20 nM protein, 10 nM fluorescent probe
T1 sequence (Q07817 with tags, fused parts or gaps V9A/V10N): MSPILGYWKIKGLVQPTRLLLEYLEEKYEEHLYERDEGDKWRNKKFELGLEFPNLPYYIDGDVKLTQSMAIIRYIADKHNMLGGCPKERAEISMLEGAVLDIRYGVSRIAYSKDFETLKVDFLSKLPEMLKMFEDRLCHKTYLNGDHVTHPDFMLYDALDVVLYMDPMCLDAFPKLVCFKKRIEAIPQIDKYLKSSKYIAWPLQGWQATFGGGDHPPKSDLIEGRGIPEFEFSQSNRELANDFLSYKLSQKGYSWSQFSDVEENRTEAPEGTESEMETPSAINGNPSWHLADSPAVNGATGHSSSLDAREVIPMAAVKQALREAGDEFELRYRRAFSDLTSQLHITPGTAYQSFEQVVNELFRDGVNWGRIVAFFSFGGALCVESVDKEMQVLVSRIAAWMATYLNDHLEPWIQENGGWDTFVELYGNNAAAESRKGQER

[3] = system: MOLT-4 T-cell Acute Lymphoblastic Leukemia (T-ALL) model; assay: MOLT-4 xenograft efficacy study (tumor growth inhibition); format: in vivo, female NOD SCID mice; conditions: for activity in vivo after intravenous administration: MOLT-4 xenograft
Method: The in vivo therapeutic and pharmacodynamic effects of Bcl-xL-targeting small molecules were determined in MOLT-4 T-cell Acute Lymphoblastic Leukemia (T-ALL) model upon intravenous (IV) administration. The tested compounds were formulated in Hydroxypropyl-β-Cyclodextrin 20%/Hydrogen Chloride 25 mM (HPBCD/HCl). MOLT-4 cells (ATCC No. CRL-1582) were cultured in RPMI supplemented with 10% FBS. Cells were re-suspended in 50% matrigel (BD Biosciences) and 0.1 mL containing 5×10^6 cells was subcutaneously inoculated into the right flank of female NOD SCID mice (Charles River). For efficacy studies, when tumors reached the appropriate volume, mice were randomized (8 animals per group) using Easy stat software. Control vehicle (HPBCD/HCl), Example 73 (3.75 or 7.5 mg/kg) or Example 100 (3.75 mg/kg) were injected IV ([…]-[…]). Mice body weight was monitored three times a week and tumor size was measured using electronic calipers. Tumor volume was estimated by measuring the minimum and maximum tumor diameters using the formula: (minimum diameter)^2 (maximum diameter)/2. At the end of the treatment cycle (day 17), tumor growth inhibition was calculated using the formula: [formula] Response was evaluated as follows: CR (Complete Response) if tumor size was ≤25 mm^3 for at least three consecutive measurements, PR (Partial Response) if tumor size was comprised between 25 mm^3 and half of the starting size for at least three consecutive measurements. Mice were sacrificed at the first measurement for which tumor volume exceeded 2000 mm^3 or at the first signs of animal health deterioration. Efficacy of Example 73 and Example 100 on MOLT-4 xenografts is illustrated in Table 5. Treatment was started 12 days post tumor cells inoculation (average size: 214 mm^3). Vehicle (HPBCD/HCl), Example 73 (3.75 and 7.5 mg/kg) or Example 100 (3.75 mg/kg) were dosed IV each 3 days for a total of 6 administrations.

BCLXL [4] = target: T1, BCLXL; assay: AlphaLISA assay (BIM peptide displacement); format: binding; conditions: 20 pM protein, 1 nM peptide
How it was run: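 Competitive displacement of fluorescein-labelled BIM peptide (1 nM) from biotinylated GST-BCL-XL(2-209) (20 pM) in 10 mM HEPES, 150 mM NaCl, 0.05% Tween 20, pH 7.4, 4% DMSO; 11-point dilutions. Overnight at 23° C with acceptor beads, then donor beads 2 h; Alpha signal at 615 nm.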

Bcl-xL protein = target: T2, Bcl-xL protein (Homo sapiens, UniProt Q07817, N197C); assay: Fluorescence quenching assay (PUMA peptide displacement); format: binding; conditions: 1 nM protein, 400 nM peptide, 2 hours at 23° C.; KI determined from IC50
T2 construct: (2-197)[N197C]; His-His (two His8 stretches joined by a Gly/Ala/Ser/Thr linker)
T2 sequence (Q07817 2-197 N197C): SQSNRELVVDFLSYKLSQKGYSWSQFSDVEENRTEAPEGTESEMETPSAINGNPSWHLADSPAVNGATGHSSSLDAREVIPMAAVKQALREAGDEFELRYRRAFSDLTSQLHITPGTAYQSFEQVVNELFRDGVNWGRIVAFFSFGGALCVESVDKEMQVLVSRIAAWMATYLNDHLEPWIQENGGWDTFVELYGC
How it was run: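 Displacement of a TQ5WS-quencher-labelled PUMA peptide (400 nM) from Cy5-labelled His-tagged Bcl-xL 2-197 N197C (1 nM) raises fluorescence. An 11-point compound dilution was incubated 2 h at 23 °C in HEPES 10 mM, NaCl 150 mM, 0.05% Tween 20, pH 7.4, 5% DMSO. Fluorescence was read at Ex 620/Em 680 nm, and KI was derived from IC50.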

MOLT-4 cells = assay: MOLT-4 cell viability, MTT assay; format: cell-based; conditions: Homo sapiens, MOLT-4, 48 h, 48 h exposure
How it was run: (§1)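 Cells grown in RPMI 1640 with 10% heat-inactivated FBS at 37° C, 5% CO2, exposed 48 h to nine 3.16-fold serial compound dilutions in triplicate. MTT added for 4 h, SDS/HCl solubilisation overnight, absorbance at 540 nm; IC50 by four-parameter fit.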

H146 cells = assay: H146 cell viability, MTT assay; format: cell-based; conditions: Homo sapiens, NCI-H146, 48 h, 48 h exposure
How it was run: as §1

[5] = system: allogeneic T- and B-cell responses; conditions: after skin transplantation; cited from earlier work
allogeneic T-cell = conditions: in vitro; cited from earlier work
[6] = mice, animal models of arthritis and lupus; cited from earlier work
[7] = system: T-ALL patient derived xenograft models; conditions: in vivo; cited from earlier work
lymphocyte proliferation = conditions: in vitro; cited from earlier work
lymphoid malignancies = conditions: cited from earlier work
[8] = system: hematological malignancies and solid tumors; conditions: several hematological malignancies and solid tumors; cited from earlier work

Ki (BCLXL [2]) [nM]	IC50 (BCLXL [4]) [nM]	Ki (Bcl-xL protein) [nM]	IC50 (MOLT-4 cells) [nM]	IC50 (H146 cells) [nM]	Compound	in vivo activity [1]	activity in vivo after intravenous administration [3]	activity in T-ALL patient derived xenograft models [7]	other results
					Cc1c(-c2ccc(N3CCc4cccc(C(=O)Nc5nc6ccccc6s5)c4C3)nc2C(=O)O)cnn1CC12CC3CC(CC(C3)C1)C2 [Example A-1331852]	exhibited in vivo activity			in vitro and in vivo activity (MOLT-4): in vitro and in vivo activity
					CN(C)CC#Cc1ccc(OCCCc2sc(N3CCc4cccc(C(=O)Nc5nc6ccccc6s5)c4C3)nc2C(=O)O)c(F)c1 [Example A-1155463]	exhibited in vivo activity			
< 1	0.0077	0.0028	1.51	4.8	CNCC#Cc1ccc(OCCCc2sc(N(C)c3cc(C)c(Nc4nc5ccccc5s4)nn3)nc2C(=O)O)c(F)c1 [Example 73, 2-({6-[(1,3-Benzothiazol-2-yl)amino]-5-methylpyridazin-3-yl}(methyl)amino)-5-(3-{2-fluoro-4-[3-(methylamino)prop-1-yn-1-yl]phenoxy]propyl)-1,3-thiazole-4-carboxylic acid]		active in vivo		% TGI (day 17) ([3]; 3.75 mg/kg, IV, Q3D6): 56.9%
					CN(C)CC[C@H](CSc1ccccc1)Nc1ccc(S(=O)(=O)NC(=O)c2ccc(N3CCN(Cc4ccccc4-c4ccc(Cl)cc4)CC3)cc2)cc1[N+](=O)[O-] [ABT-737]			promising activity	allogeneic T- and B-cell responses [5]: inhibited allogeneic T- and B-cell responses; allogeneic T-cell activation, proliferation, and cytotoxicity (allogeneic T-cell): prevented allogeneic T-cell activation, proliferation, and cytotoxicity; disease severity [6]: significant decrease in disease severity; inhibition of lymphocyte proliferation (lymphocyte proliferation): potent inhibition of lymphocyte proliferation
1.1	0.074	0.0061	6.72	6.78	CNCCN(C)CC#Cc1ccc(OCCCc2sc(N(C)c3cc(C)c(Nc4nc5ccccc5s4)nn3)nc2C(=O)O)c(F)c1 [Example 74, 2-({6-[(1,3-Benzothiazol-2-yl)amino]-5-methylpyridazin-3-yl}(methyl)amino)-5-{3-[2-fluoro-4-(3-{methyl[2-(methylamino)ethyl]amino}prop-1-yn-1-yl)phenoxy]propyl}-1,3-thiazole-4-carboxylic acid]		active in vivo		
					CC1(C)CCC(c2ccc(Cl)cc2)=C(CN2CCN(c3ccc(C(=O)NS(=O)(=O)c4ccc(N[C@H](CCN5CCOCC5)CSc5ccccc5)c(S(=O)(=O)C(F)(F)F)c4)cc3)CC2)C1 [ABT-263]			promising activity	antitumor activity in clinical studies (lymphoid malignancies): exhibited objective antitumor activity; activity in pre-clinical models [8]: has shown activity
